Test results published in ChEMBL document CHEMBL4152303, “Structure-activity relationships of imidazothiazinones and analogs as antagonists of the cannabinoid-activated orphan G protein-coupled receptor GPR18” (Eur J Med Chem, 2018).

How the values were obtained:
[1] = biological target: T1, G-protein coupled receptor 55 (Homo sapiens, UniProt Q9Y2T6); assay: Antagonist activity at recombinant human GPR55 expressed in CHO cells assessed as inhibition of lysophosphatidylinositol-induced beta-arrestin recruitment preincubated for 60 mins followed by lysophosphatidylinositol addition for 90 mins measured for 1 sec by luminescence assay; format: functional, cell-based
[2] = biological target: T1, G-protein coupled receptor 55; assay: Agonist activity at recombinant human GPR55 expressed in CHO cells assessed as increase in beta-arrestin recruitment incubated for 60 mins measured for 1 sec by luminescence assay; format: functional, cell-based
[3] = biological target: T2, N-arachidonyl glycine receptor (Homo sapiens) (UniProt Q14330); assay: (§1) Antagonist activity at recombinant human GPR18 expressed in CHO cells assessed as inhibition of delta9-THC-induced beta-arrestin recruitment preincubated for 60 mins followed by delta9-THC addition for 90 mins measured for 1 sec by luminescence assay; format: functional, cell-based
T2 sequence (whole entry): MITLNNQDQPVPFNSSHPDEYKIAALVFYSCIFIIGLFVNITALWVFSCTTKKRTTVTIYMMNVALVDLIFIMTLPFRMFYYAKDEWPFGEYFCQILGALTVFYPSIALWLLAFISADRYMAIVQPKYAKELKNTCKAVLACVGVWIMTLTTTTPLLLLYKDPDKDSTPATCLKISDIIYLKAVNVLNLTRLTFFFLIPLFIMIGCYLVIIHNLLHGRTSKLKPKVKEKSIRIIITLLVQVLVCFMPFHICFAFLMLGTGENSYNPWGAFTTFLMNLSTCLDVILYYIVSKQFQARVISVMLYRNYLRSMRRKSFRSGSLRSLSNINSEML

[4] = biological target: T3, N-arachidonyl glycine receptor (Homo sapiens, UniProt Q14330); assay: as §1; format: functional, cell-based
T3 sequence (Q14330 whole entry): T2 sequence (whole entry)

Cannabinoid receptor 1 = Cannabinoid receptor 1 (Homo sapiens, UniProt P21554); assay: Displacement of [3H]CP55940 from recombinant human CB1 receptor expressed in CHO cell membranes after 2 hrs by liquid scintillation counting method; settings: for inhibition: concentration not given here
[5] = biological target: T2, N-arachidonyl glycine receptor (Homo sapiens); assay: (§2) Agonist activity at recombinant human GPR18 expressed in CHO cells assessed as increase in beta-arrestin recruitment incubated for 60 mins measured for 1 sec by luminescence assay; format: functional, cell-based
[6] = biological target: T3, N-arachidonyl glycine receptor; assay: as §2; format: functional, cell-based
[7] = biological target: T2, N-arachidonyl glycine receptor (Homo sapiens); assay: Competitive antagonist activity at recombinant human GPR18 expressed in CHO cells assessed as inhibition of delta9-THC-induced beta-arrestin recruitment preincubated for 60 mins followed by delta9-THC addition for 90 mins measured for 1 sec by luminescence assay; format: functional, cell-based
Cannabinoid receptor 2 = Cannabinoid receptor 2 (Homo sapiens, UniProt P34972); assay: Displacement of [3H]CP55940 from recombinant human CB2 receptor expressed in CHO cell membranes after 2 hrs by liquid scintillation counting method; settings: for inhibition: concentration not given here
[8] = biological target: T3, N-arachidonyl glycine receptor; assay: Agonist activity at recombinant full length human GPR18 expressed in CHO cells assessed as forskolin-stimulated cAMP accumulation after 10 mins by enzyme immunoassay; format: functional, cell-based
[9] = biological target: T3, N-arachidonyl glycine receptor; assay: Agonist activity at recombinant human GPR18 expressed in HEK293 cells assessed as induction of p44/42 MAPK phosphorylation after 5 mins by Western blot analysis; format: functional, cell-based

Cannabinoid receptor 2, sequence (P34972 whole entry): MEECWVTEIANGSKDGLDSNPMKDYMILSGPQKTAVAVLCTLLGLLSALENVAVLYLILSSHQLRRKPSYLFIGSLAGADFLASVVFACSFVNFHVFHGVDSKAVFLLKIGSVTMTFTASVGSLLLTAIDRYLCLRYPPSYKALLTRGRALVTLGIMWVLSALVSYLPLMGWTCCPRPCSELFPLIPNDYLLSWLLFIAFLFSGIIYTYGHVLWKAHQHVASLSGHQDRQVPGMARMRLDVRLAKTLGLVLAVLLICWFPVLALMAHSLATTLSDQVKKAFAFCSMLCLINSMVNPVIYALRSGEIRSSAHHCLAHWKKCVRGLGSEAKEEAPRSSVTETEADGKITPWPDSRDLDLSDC
Cannabinoid receptor 1, sequence (P21554 whole entry): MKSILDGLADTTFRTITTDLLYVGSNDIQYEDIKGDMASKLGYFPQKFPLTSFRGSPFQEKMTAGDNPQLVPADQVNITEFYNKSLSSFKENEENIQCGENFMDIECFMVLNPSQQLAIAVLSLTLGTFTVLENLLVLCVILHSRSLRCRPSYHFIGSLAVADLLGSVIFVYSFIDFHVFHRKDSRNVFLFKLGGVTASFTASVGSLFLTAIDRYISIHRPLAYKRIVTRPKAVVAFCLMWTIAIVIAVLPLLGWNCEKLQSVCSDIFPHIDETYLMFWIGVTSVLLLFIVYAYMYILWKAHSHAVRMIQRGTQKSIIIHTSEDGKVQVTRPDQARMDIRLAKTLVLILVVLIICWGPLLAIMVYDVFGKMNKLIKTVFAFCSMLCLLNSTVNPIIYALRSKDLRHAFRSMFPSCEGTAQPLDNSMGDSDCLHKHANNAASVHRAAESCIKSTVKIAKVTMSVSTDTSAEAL
T1 sequence (Q9Y2T6 whole entry): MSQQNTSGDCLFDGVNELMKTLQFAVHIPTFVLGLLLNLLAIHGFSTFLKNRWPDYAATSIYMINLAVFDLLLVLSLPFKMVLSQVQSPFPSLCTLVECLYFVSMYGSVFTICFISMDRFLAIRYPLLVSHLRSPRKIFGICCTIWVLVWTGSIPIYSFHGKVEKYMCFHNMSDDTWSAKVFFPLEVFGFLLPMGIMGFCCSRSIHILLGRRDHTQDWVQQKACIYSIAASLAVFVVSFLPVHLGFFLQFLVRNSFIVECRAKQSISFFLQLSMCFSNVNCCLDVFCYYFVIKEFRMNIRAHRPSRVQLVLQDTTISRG

Row | SMILES | IC50 [1] | Imax [1] | %max [2] | EC50 [2] | Imax [3] | IC50 [4] | Ki (Cannabinoid receptor 1) | %max [5] | EC50 [6] | Kb [7] | pKb [7] | Ki (Cannabinoid receptor 2) | inhibition (Cannabinoid receptor 2) | inhibition (Cannabinoid receptor 1) | EC50 [8] | EC50 [9] | Imax (Cannabinoid receptor 2)
1 | O=C1/C(=C/c2cccc(OCCCCCCOc3ccc(Cl)cc3)c2)N=C2SCCCN12 | > 10 µM | 37% | -15% | > 10 µM | 122% | 0.65 µM | > 10 µM | -37% | > 10 µM | 0.626 µM | 6.2 | > 10 µM | 12% |  |  |  | 
2 | Cc1ccc(OCCCCCCOc2cccc(/C=C3\N=C4SCCCN4C3=O)c2)cc1 | 2.91 µM | 86% | 35% | > 10 µM | 81% | 0.238 µM | > 10 µM | -12% | > 10 µM |  |  | > 10 µM | 12% | 9% |  |  | 
3 | O=C1NC(SCc2ccc(Br)cc2)=N/C1=C\c1cccc(OCc2ccc(Cl)cc2)c1 | > 10 µM | 36% | 13% | > 10 µM | 44% | 2.29 µM | > 10 µM | -11% | > 10 µM |  |  | > 10 µM | 36% | 31% |  |  | 
4 | O=C1/C(=C/c2cccc(OCc3ccc(Cl)cc3)c2)N=C2SCCN12 | > 10 µM | 42% | -3% | > 10 µM | 40% | > 10 µM | > 10 µM | 1% | > 10 µM |  |  | > 10 µM | 28% | 18% |  |  | 
5 | CCCCC/C=C\C/C=C\C/C=C\C/C=C\CCCC(=O)NCC(=O)O [ARACHIDONOYL GLYCINE] |  |  |  |  |  |  |  |  |  |  |  |  |  |  | 0.02 µM | 0.044 µM | 
6 | CC(C)c1ccc(OCCCCCCOc2cccc(/C=C3\N=C4SCCCN4C3=O)c2)cc1 | > 10 µM | 32% | 45% | > 10 µM | 24% | > 10 µM | > 10 µM | 15% | > 10 µM |  |  | > 10 µM | 46% | 33% |  |  | 
7 | CSC1=NC(=O)/C(=C/c2cccc(OCc3ccc(Cl)cc3)c2)N1 | > 10 µM | 47% | 18% | > 10 µM | 71% | 13.8 µM | 2.21 µM | 31% | > 10 µM |  |  | 0.591 µM |  |  |  |  | 73%
8 | O=C1/C(=C/c2cccc(OCCCCCCOc3ccccc3Cl)c2)N=C2SCCCN12 | 3.41 µM | 79% | 0% | > 10 µM | 41% | > 10 µM | > 10 µM | 10% | > 10 µM |  |  | > 10 µM | 29% | 19% |  |  | 
9 | O=C1/C(=C/c2cccc(OCc3ccc(F)cc3)c2)N=C2SCCCN12 | 4.22 µM | 149% | -30% | > 10 µM | 3% | > 10 µM | > 10 µM | 6% | > 10 µM |  |  | > 10 µM | 46% | 35% |  |  | 
10 | O=C1/C(=C/c2cccc(OCCCCCOc3ccc(Cl)cc3)c2)N=C2SCCCN12 | 3.77 µM | 124% | -21% | > 10 µM | 123% | 1.14 µM | > 10 µM | -38% | > 10 µM |  |  | > 10 µM |  | 8% |  |  | 
